Test: Mice serum protein binding assay (equilibrium dialysis, RED Device)
Type: in vitro ADME
Conditions: CD-1 (ICR), mouse, pH 7.4, murine serum, 37° C., 5 to 6 hours, read-out: Protein binding rate (converted)
Experimental: The protein binding rate was determined by equilibrium dialysis method using the RED Device (8K MWCO, Rapid Equilibrium Dialysis Device, Thermo Scientific). The test substances that had been dissolved in DMSO were added to the serum that was collected from Cr1: CD-1 (ICR) mice fasted overnight, so that the final concentration of DMSO became 1% (v/v). The serum to which the test substance had been added was added to the inner side of the dialysis membrane of the RED Device, and PBS (phosphate buffer saline, pH 7.4) containing 0.01% (v/v) Tween 80 was added to the outside in accordance with the method for using the RED Device and incubated at 37° C. for 5 to 6 hours with ellipsoidal shaking at 100 rpm so that the concentration of the unbound test substance in the serum and the concentration of the test substance in the PBS reached equilibrium. […] The proteins were removed from the measurement sample by adding acetonitrile in an amount of 5-fold or more of the amount of the internal standard substance and the serum sample, and the supernatants were measured by LC/MS/MS (liquid chromatograph-triple quadrupole mass spectrometer). The serum samples were measured after suitably diluting with distilled water as necessary. […]
However, in the case when the concentration in the sample was calculated by using a calibration curve, A and B were as follows.

Q: Which fraction unbound does the source give for `CC[C@]1(c2cccc(NS(C)(=O)=O)c2)[C@@H]2CN(CC3(O)Cc4ccccc4C3)C[C@@H]21` [Comparative Compound 1, N-(3-{(1R,5S,6r)-6-ethyl-3-[(2-hydroxy-2,3-dihydro-1H-inden-2-yl)methyl]-3-azabicyclo[3.1.0]hexan-6-yl}phenyl)methanesulfonamide methanesulfonate] here?
A: 0.068

Reference: patent publication US10392345B2, “Crystal of salt of novel 3-azabicyclo[3.1.0]hexane derivative and pharmaceutical use thereof” (SANWA KAGAKU KENKYUSHO CO., LTD., priority 2015, dated 2019)
